One assay deals with Type IV PDE. Description: PDE IV inhibitory activity (isozyme partially purified from rat neutrophils, 3H-cAMP substrate). In kind it is biochemical. The following applies: rat neutrophil PDE IV, 30° C., 30 minutes, read-out: PDE IV inhibiting action IC50. The protocol: Type I, III, IV, and V PDE isozymes were prepared to study the PDE inhibitory activities of and selectivities with the compound of the invention [Trends Pharmacol Sci., 12, 19-27 (1991)]. Type I PDE was purchased from Sigma Corp. Type III, IV, and V PDE isozymes were partially purified from platelets (Type III and V) or neutrophils (Type IV) collected from rats. Each enzyme source was homogenized in a buffer (pH 6.5) containing 20 mM bisTris, 2 mM EDTA (i.e., ethlenediamine tetraacetate), 2-mercaptoethanol, 0.001 mM pepstatin and 0.01 mM leupeptin and was centrifuged at 30000×G for 30 minutes to obtain a supernatant, which was applied to an ion exchange column (Q-sepharose first flow, Pharmacia Corp.) and was eluted with 0 to 1M sodium acetate. Partially purified isozymes were identified by observing the inhibitory effects of conventional inhibitors.
Each PDE isozyme and the test compound dissolved in DMSO (i.e., dimethylsulfoxide) were added to 50 mM Tris--HCI buffer containing 5 mM magnesium chloride. ^3 H-cAMP (for type III and IV PDE) or ^3 H-cGMP (for type I and V PDE) were added as substrates and were reacted at 30° C. for 30 minutes. The reaction was terminated by placing the test tube in boiling water of 100° C. for 5 minutes. The nucleotides formed by PDE were broken down to ^3 H-adenosine or ^3 H-guanosine by 5'-nucleotidase. The substrate and reaction product were separated through an ion-exchange column (i.e., QAE sephadex, Pharmacia Corp.)
The eluted ^3 -H-nucleoside was measured for its radioactivity by a liquid scintillation counter. The inhibitory activities of the compound of the present invention are shown by the IC50 value (M). Further, the inhibitory activities of the test samples against type I, III, and V PDE are 1/10 or less than that against Type IV PDE.

In assay [1] the test system is TPA induced ear edema in mouse. The assay can be described thus: TPA induced mouse ear edema assay. Format: in vivo, mouse (male ICR). The note with it: 0.1 mg applied to right ear immediately after TPA; 6 hour. The protocol: Male ICR mice, 5 week old, were divided into groups of seven to eight. 2 μg of TPA (phorbor 12-ministate; Sigma Co.) in 20 μl acetone was applied to the inner and outer surface of right ear of each mouse to cause a reaction. 0.1 mg of compound was dissolved in 20 μl of a tetrahydrofuran-methanol mixture (mixture ratio 1:1) and the solution (20 μl) applied to the right ear immediately after TPA treatment. After 6 hour, the animals were sacrificed and right ear was punched out (.phi. […]) and weighed. The effect of comppund.was calculated as % inhibition as follows: [formula]

Take `COc1ccc(NC2=C(C)C(=O)CC2)cc1O[C@@H]1C[C@H]2CC[C@@H]1C2` (racemic) [Compound No. 44, 3-[3-[(1RS,2RS,4SR)-bicyclo[2.2. 1]hept-2-yloxy]-4-methoxyanilino]-2-methyl-2-cyclopenten-1-one]: in the assay on Type IV PDE, the IC50 amounted to 0.22 µM. Moreover, in assay [1], the “% Inhibition of ear edema” value came to 74.1%.
On the same counts, the results for `CCC1=C(Nc2ccc(OC)c(O[C@@H]3C[C@H]4CC[C@@H]3C4)c2)CCC1=O` (racemic) [Compound No. 45, 3-[3-[(1RS,2RS,4SR)-bicyclo[2.2. 1]hept-2-yloxy]-4-methoxyanilino]-2-ethyl-2-cyclopenten-1-one] are 0.08 µM and 75.3%.
For the molecule `COc1ccc(NC2=C(C)C(=O)CCC2)cc1O[C@@H]1C[C@H]2CC[C@@H]1C2` (racemic) [Compound No. 46, 3-[3-[(1RS,2RS,4SR)-bicyclo[2.2. 1]hept-2-yloxy]-4-methoxyanilino]-2-methyl-2-cyclohexen-1-one], in the assay on Type IV PDE, the IC50 was 0.26 µM.
The same measure, in the same setting: the value for `COc1ccc(NC2=CC(=O)CC(C)(C)C2)cc1OC1CCCC1` [Compound No. 3, 3-(3-cycloientyloxy-4-methoxyanilino)-5,5-dimethyl-2-cyclohexen-1-one] was 4.9 µM; that for `COc1ccc(NC2=C(C)C(=O)CC2)cc1OC1CCCC1` [Compound No. 4, 3-(3-cyclopentyloxy-4-methoxyanilino)-2-methyl-2-cyclopenten-1-one] was 0.39 µM; that for `COc1ccc(NC2=CC(=O)CC(C)C2)cc1OC1CCCC1` (centres unmarked) [Compound No. 5, 3-(3-cycloientyloxy-4-methoxyanilino)-5-methyl-2-cyclohexen-1-one] was 2.2 µM.
Same read-out and setting: the value for `COc1ccc(NC2=C(Cl)C(=O)CC2)cc1OC1CCCC1` [Compound No. 6, 2-chloro-3-(3-cyclopentyloxy-4-methoxyanilino)-2-cyclopenten-1-one] was 0.54 µM; that for `COc1ccc(NC2=CC(=O)CC2)cc1OCCc1ccccc1` [Compound No. 11, 3-(4-methoxy-3-phenethyloxyanilino)-2-cyclopenten-1-one] was 4 µM; that for `COc1ccc(NC2=CC(=O)CC2)cc1OCC1CC1` [Compound No. 15, 3-(3-cyclopropylmethoxy-4-methoxyanilino)-2-cyclopenten-1-one] was 7.1 µM.
The same measure, in the same setting: the value for `CCCCOc1cc(NC2=C(C)C(=O)CC2)ccc1OC` [Compound No. 18, 3-(3-butoxy-4-methoxyanilino)-2-methyl-2-cyclopenten-1-one] was 1.7 µM.
For `COc1ccc(NC2=CC(=O)CCC2)cc1OCc1ccccc1` [Compound No. 20, 3-(3-benzyloxy-4-methoxyanilino)-2-cyclohexen-1-one], in the assay on Type IV PDE, the IC50 turned out to be 44 µM.
Still for that read-out and setting: the same measure for `COc1ccc(NC2=C(CN(C)C)C(=O)CC2)cc1OC1CCCC1` [Compound No. 24, 3-(3-cyclopentyloxy-4-methoxyanilino)-2-dimethylaminomethyl-2-cyclopenten-1-one]: 61 µM; for `COc1ccc(NC2=C(CN3CCOCC3)C(=O)CC2)cc1OC1CCCC1` [Compound No. 25, 3-(3-cyclopentyloxy-4-methoxyanilino)-2-(4-morpholinomethyl)-2-cyclopenten-1-one]: 17 µM.
Still for that read-out and setting: the value for `COc1ccc(N(C(C)=O)C2=CC(=O)CC2)cc1OC1CCCC1` [Compound No. 29, 3-(N-acetyl-3-cyclopentyloxy-4-methoxyanilino)-2-cyclopenten-1-one] was 48 µM; that for `COc1ccc(NC2=CC(=O)CC2)cc1OCCC1Cc2ccccc2C1` [Compound No. 34, 3-[3-[2-(2-indanyl)ethoxy]-4-methoxyanilino]-2-cyclopenten-1-one] was 1.8 µM; that for `COc1ccc(NC2=CC(=O)CC2)cc1OC1CCOC1` (centres unmarked) [Compound No. 36, 3-[4-methoxy-3-(3-2,3,4,5-tetrahydrofuranyloxy)anilino]-2-cyclopenten-1-one] was 8.9 µM.
On to `COc1ccc(NC2=CC(=O)C(C)(C)CC2)cc1OC1CCCC1` [Compound No. 38, 3-(3-cyclopentyloxy-4-methoxyanilino)-6,6-dimethyl-2-cyclohexen-1-one], for which the IC50 in the assay with Type IV PDE is 17 µM.
The same measure, in the same setting: the value for `COc1ccc(NC2=CC(=O)CC(c3ccccc3)C2)cc1OC1CCCC1` (centres unmarked) [Compound No. 39, 3-(3-cyclopentyloxy-4-methoxyanilino)-5-phenyl-2-cyclohexen-1-one] was 3.9 µM; that for `COc1ccc(NC2=CC(=O)CC2)cc1OCC1CCCC1` [Compound No. 40, 3-(3-cyclopentylmethoxy-4-methoxyanilino)-2-cyclopenten-1-one] was 4 µM.
The same measure, in the same setting: the value for `COc1ccc(NC2=C(C)C(=O)CC2)cc1OCC1CCCC1` [Compound No. 41, 3-(3-cyclopentylmethoxy-4-methoxyanilino)-2-methyl-2-cyclopenten-1-one] was 0.94 µM; that for `COc1ccc(NC2=C(C)C(=O)CC2)cc1OCCc1cccc2ccccc12` [Compound No. 43, 3-[4-methoxy-3-[2-(1-naphthyl)ethoxy]anilino]-2-methyl-2-cyclopenten-1-one] was 1.3 µM; that for `COc1ccc(NC2=CC(=O)CC2)cc1OCC1CCC1` [Compound No. 51, 3-(3-cyclobutylmethoxy-4-methoxyanilino)-2-cyclopenten-1-one] was 1.9 µM.
Still for that read-out and setting: the same measure for `COc1ccc(NC2=C(C)C(=O)CC2)cc1OCC1CCC1` [Compound No. 52, 3-(3-cyclobutylmethoxy-4-methoxyanilino)-2-methyl-2-cyclopenten-1-one]: 0.55 µM; for `COc1ccc(NC2=C(C)C(=O)CCC2)cc1OCC1CCCC1` [Compound No. 54, 3-(3-cyclopentylmethoxy-4-methoxyanilino)-2-methyl-2-cyclohexen-1-one]: 0.73 µM.
Regarding `COc1ccc(NC2=C(Cc3ccccc3)C(=O)CCC2)cc1OC1CCCC1` [Compound No. 69, 2-benzyl-3-(3-cyclopentyloxy-4-methoxyanilino)-2-cyclohexen-1-one], in the assay on Type IV PDE, the half-inhibitory concentration (IC50) was found to be 1.1 µM.
The same measure, in the same setting: the same measure for `COc1ccc(N(C)C2=C(C)C(=O)CC2)cc1OC1CCCC1` [Compound No. 70, 3-(3-cyclopentyloxy-4-methoxy-N-methylanilino)-2-methyl-2-cyclopenten-1-one]: 3.1 µM; for `COc1ccc(N(Cc2ccccc2)C2=C(C)C(=O)CC2)cc1OC1CCCC1` [Compound No. 71, 3-(N-benzyl-3-cyclopentyloxy-4-methoxyanilino)-2-methyl-2-cyclopenten-1-one]: 8.2 µM.
Consider `COc1ccc(N(Cc2ccc3ccccc3n2)C2=C(C)C(=O)CC2)cc1OC1CCCC1` [Compound No. 72, 3-[3-cyclopentyloxy-4-methoxy-N-(2-quinolylemethyl)anilino]-2-methyl-2-cyclopenten-1-one], for which the IC50 in the assay on Type IV PDE came to 3 µM.
In the case of `COc1ccc(N(Cc2ccc3ccccc3c2)C2=C(C)C(=O)CC2)cc1OC1Cc2ccccc2C1` [Compound No. 74, 3-[3-(2-indanyloxy)-4-methoxy-N-(2-naphthylmethyl)anilino]-2-methyl-2-cyclopenten-1-one], the IC50 with Type IV PDE was 3.5 µM.
Same read-out and setting: the value for `COc1ccc(NC2=CC(=O)CC2)cc1OCCc1cccc2ccccc12` [compound 42, 3-[4-methoxy-3-[2-(1-naphthyl)ethoxy]anilino]-2-cyclopenten-1-one] was 9.6 µM.
